Test results as given in patent US20090137549A1, “Novel compounds useful for the treatment of degenerative & inflamatory diseases” (priority 2006, published 2009).
Counter-ions that a name gives are not always drawn.

Molecular target: T1, PDE1A (Homo sapiens, UniProt P54750)
Test: PDE1A dose response, Cyclic Nucleotide Phosphodiesterase Assay Kit from Biomol (colorimetric)
Assay type: biochemical
Details: purified PDE1A enzyme, 100 μM cAMP
Procedure, shortened: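 Purified PDE1A hydrolysed 100 μM cAMP with 5′-nucleotidase in Tris 20 mM pH 7.4 with calmodulin, Ca2+, Mg2+, 45 min at 37° C. Released phosphate read by malachite-green absorbance at 615 nm. Duplicate 8-point 1/3 dilutions from 20 μM, 1% DMSO; 10 μM vardenafil defined 100% inhibition.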

Compound | IC50
CC(C)N1CCN(c2ccc(-c3csc(N4CC(c5nc6c(cnn6C6CCCCC6)c(=O)[nH]5)C4)n3)cc2)CC1 [Example 161, 1-Cyclohexyl-6-(1-(4-(4-(4-isopropylpiperazin-1-yl)phenyl)thiazol-2-yl)azetidin-3-yl)-1H-pyrazolo[3,4-d]pyrimidin-4-(5H)-one] | 1 to 100 nM
O=c1[nH]c(C2CN(c3nc(-c4ccccc4)c(CN4CCOCC4)s3)C2)nc2c1cnn2C1CCCCC1 [Example 162, 1-Cyclohexyl-6-(1-(5-morpholin-4-ylmethyl-4-phenylthiazol-2-yl)azetidin-3-yl)-1H-pyrazolo[3,4-d]pyrimidin-4-(5H)-one] | 1 to 100 nM
CC(C)(C)n1ncc2c(=O)[nH]c(C3CN(c4ccccn4)C3)nc21 [Example 163, 1-tert-Butyl-6-(1-pyridin-2-yl-azetidin-3-yl)-1,5-dihydro-pyrazolo[3,4-d]pyrimidin-4-one] | 101 to 500 nM
CC(C)(C)n1ncc2c(=O)[nH]c(C3CN(c4ccc(CN5CCOCC5)cc4)C3)nc21 [Example 164, 1-tert-Butyl-6-[1-(4-morpholin-4-ylmethyl-phenyl)-azetidin-3-yl]-1,5-dihydro-pyrazolo[3,4-d]pyrimidin-4-one] | 1 to 100 nM
COc1ccc(N2CC(c3nc4c(cnn4C4CCCCC4)c(=O)[nH]3)C2)cc1 [Example 165, 1-cyclohexyl-6-(1-(4-methoxyphenyl)azetidin-3-yl)-1H-pyrazolo[3,4-d]pyrimidin-4(5H)-one] | 101 to 500 nM
COc1cccc(N2CC(c3nc4c(cnn4C4CCCCC4)c(=O)[nH]3)C2)c1 [Example 166, 1-cyclohexyl-6-(1-(3-methoxyphenyl)azetidin-3-yl)-1H-pyrazolo[3,4-d]pyrimidin-4(5H)-one] | 101 to 500 nM
CC(=O)Nc1ccc(N2CC(c3nc4c(cnn4C4CCCCC4)c(=O)[nH]3)C2)cc1 [Example 167, N-(4-(3-(1-cyclohexyl-4-oxo-4,5-dihydro-1H-pyrazolo[3,4-d]pyrimidin-6-yl)azetidin-1-yl)phenyl)acetamide] | 101 to 500 nM
O=c1[nH]c(C2CN(c3ccccc3)C2)nc2c1cnn2C1CCCCC1 [Example 168, 1-cyclohexyl-6-(1-phenylazetidin-3-yl)-1H-pyrazolo[3,4-d]pyrimidin-4(5H)-one] | 101 to 500 nM
COc1ccccc1N1CC(c2nc3c(cnn3C3CCCCC3)c(=O)[nH]2)C1 [Example 169, 1-cyclohexyl-6-(1-(2-methoxyphenyl)azetidin-3-yl)-1H-pyrazolo[3,4-d]pyrimidin-4(5H)-one] | 101 to 500 nM
Cc1nn(C2CCCCC2)c2nc(C3CN(C(=O)N(C)Cc4ccc(F)cc4)C3)[nH]c(=O)c12 [Example 170, 3-(1-Cyclohexyl-3-methyl-4-oxo-4,5-dihydro-1H-pyrazolo[3,4-d]pyrimidin-6-yl)-N-(4-fluorobenzyl)-N-methylazetidine-1-carboxamide] | 101 to 500 nM
Cn1c(CN2CC(c3nc4c(cnn4C(C)(C)C)c(=O)[nH]3)C2)nc2ccccc21 [Example 171, 1-tert-Butyl-6-(1-((1-methyl-1H-benzo[d]imidazol-2-yl)methyl)azetidin-3-yl)-1H-pyrazolo[3,4-d]pyrimidin-4(5H)-one] | 501 to 1000 nM
O=c1[nH]c(C2CN(Cc3nc4ccccc4s3)C2)nc2c1cnn2C1CCCCC1 [Example 172, 6-(1-(Benzo[d]thiazol-2-ylmethyl)azetidin-3-yl)-1-cyclohexyl-1H-pyrazolo[3,4-d]pyrimidin-4(5H)-one] | 501 to 1000 nM
CC(C)(C)n1ncc2c(=O)[nH]c(C3CN(CC(=O)Nc4ccccc4)C3)nc21 [Example 173, 2-(3-(1-tert-Butyl-4-oxo-4,5-dihydro-1H-pyrazolo[3,4-d]pyrimidin-6-yl)azetidin-1-yl)-N-phenylacetamide] | 101 to 500 nM
CC(C)(C)n1ncc2c(=O)[nH]c(C3CN(CC(=O)c4ccccc4)C3)nc21 [Example 174, 1-tert-Butyl-6-(1-(2-oxo-2-phenylethyl)azetidin-3-yl)-1H-pyrazolo[3,4-d]pyrimidin-4(5H)-one] | 101 to 500 nM
CC(C)(C)n1ncc2c(=O)[nH]c(C3CN(Cc4nc5ccccc5[nH]4)C3)nc21 [Example 175, 6-(1-((1H-Benzo[d]imidazol-2-yl)methyl)azetidin-3-yl)-1-tert-butyl-1H-pyrazolo[3,4-d]pyrimidin-4(5H)-one] | 1000 to 1500 nM
O=c1[nH]c(C2CCCN(Cc3ccccc3)C2)nc2c1cnn2C1CCCCC1 (centres unmarked) [Example 176, 6-(1-Benzylpiperidin-3-yl)-1-cyclohexyl-1H-pyrazolo[3,4-d]pyrimidin-4(5H)-one] | 1000 to 1500 nM
N#C/N=C(/Nc1ccc(F)cc1)N1CC(c2nc3c(cnn3C3CCCCC3)c(=O)[nH]2)C1 [Example 177, N′-Cyano-3-(1-cyclohexyl-4-oxo-4,5-dihydro-1H-pyrazolo[3,4-d]pyrimidin-6-yl)-N-(4-fluorophenyl)azetidine-1-carboximidamide] | 1 to 100 nM
N#C/N=C(/NCC1CCCCC1)N1CC(c2nc3c(cnn3C3CCCCC3)c(=O)[nH]2)C1 [Example 178, N′-Cyano-3-(1-cyclohexyl-4-oxo-4,5-dihydro-1H-pyrazolo[3,4-d]pyrimidin-6-yl)-N-(cyclohexylmethyl)azetidine-1-carboximidamide] | 1 to 100 nM
CC(C)(C)n1ncc2c(=O)[nH]c(C3CN(/C(=N\C#N)Nc4ccc(F)cc4)C3)nc21 [Example 179, 3-(1-tert-Butyl-4-oxo-4,5-dihydro-1H-pyrazolo[3,4-d]pyrimidin-6-yl)-N′-cyano-N-(4-fluorophenyl)azetidine-1-carboximidamide] | 1 to 100 nM
O=c1[nH]c(C2CN(/C(=C\[N+](=O)[O-])NCC3CCCCC3)C2)nc2c1cnn2C1CCCCC1 [Example 180, 1-Cyclohexyl-6-(1-(1-(cyclohexylmethylamino)-2-nitrovinyl)azetidin-3-yl)-1H=pyrazolo[3,4-d]pyrimidin-4(5H)-one] | 101 to 500 nM
Cc1nn(C2CCCCC2)c2nc(C3CCCN(C(=O)c4ccccc4NS(C)(=O)=O)C3)[nH]c(=O)c12 (centres unmarked) [Example 181, N-{2-[3-(1-Cyclohexyl-3-methyl-4-oxo-4,5-dihydro-1H-pyrazolo[3,4-d]pyrimidin-6-yl)-piperidine-1-carbonyl]phenyl}-methanesulfonamide] | 501 to 1000 nM
O=C(NC1CCCNC1)N1CC(c2nc3c(cnn3C3CCCCC3)c(=O)[nH]2)C1 (centres unmarked) [Example 182, 3-(1-Cyclohexyl-4-oxo-4,5-dihydro-1H-pyrazolo[3,4-d]pyrimidin-6-yl)-azetidine-1-carboxylic acid piperidin-3-ylamide trifluoroacetate] | 501 to 1000 nM
CC(C)N1CCCC(NC(=O)N2CC(c3nc4c(cnn4C4CCCCC4)c(=O)[nH]3)C2)C1 (centres unmarked) [Example 183, 3-(1-Cyclohexyl-4-oxo-4,5-dihydro-1H-pyrazolo[3,4-d]pyrimidin-6-yl)-azetidine-1-carboxylic acid (1-isopropyl-piperidin-3-yl)-amide] | 101 to 500 nM
CC(C)N1CCC(CNC(=O)N2CC(c3nc4c(cnn4C4CCCCC4)c(=O)[nH]3)C2)CC1 [Example 184, 3-(1-Cyclohexyl-4-oxo-4,5-dihydro-1H-pyrazolo[3,4-d]pyrimidin-6-yl)-N-((1-isopropylpiperidin-4-yl)methyl)azetidine-1-carboxamide] | 501 to 1000 nM

Molecular target: T1, PDE1A
Test: PDE1A primary screening, cAMP dynamic HTRF kit from Cisbio
Assay type: biochemical
Details: 10 μM, control compounds of the primary screening, 100 nM cAMP
Excerpt: For the primary screening an assay using the cAMP dynamic HTRF® kit from Cisbio (catnr 62AM2PEB) is used. Its principle is based on HTRF® technology (Homogeneous Time-Resolved Fluorescence). The method is a competitive immunoassay between native cAMP and the cAMP labeled with XL665. The tracer binding is visualized by a monoclonal antibody against cAMP, labeled with Cryptate. The specific signal (i.e. energy transfer) is inversely proportional to the concentration of cAMP in the sample (see FIG. 1).
For the enzymatic reaction, a mixture is made of 20 μL with purified PDE1A enzyme, 100 nM cAMP and the compound (10 μM in a final concentration of 1% DMSO) in a black 384-plate. The reaction buffer is Tris 20 mM pH 7.4, 4 μg/mLl calmodulin, 3 mM MgCl2, 1.5 mM CaCl2, 0.2 mg/mL BSA and 0.001% Brij-35®. After an incubation of 30 minutes at room temperature, the reaction is stopped by the addition of 10 μL labelled cAMP-XL665 and 10 μL anti-cAMP-Cryptate. After 1 hour incubation at room temperature, the readout is performed on the Envision (excitation 360 nm; emission donor 615 nm; emission acceptor 665 nm).
PDE1A hydrolyses cAMP into 5′AMP; this low cAMP concentration will result in a high signal. A PDE1A inhibitor will result in a decrease of the signal. […]

Compound | inhibition
CCCCOc1cc(CC2CNC(=O)N2)ccc1OC (centres unmarked) [Ro-20-1724] | 0%

Same assay, conditions: control compounds of the primary screening, 100 nM cAMP

Compound | inhibition at 10 µM
CCCOc1ccccc1-c1nc2nn[nH]c2c(=O)[nH]1 [Zaprinast] | ~50%
